# Activity calls are given as the source filed them. The rule behind the calls is not given here.
# System: not listed separately
# Assay: replicating M. tuberculosis growth inhibition, dose response, counter-screen, dry powder, IC90 (AID 651618)
# Settings: M. tuberculosis replicating log phase, growth inhibition
row,Compound,outcome
1,c1ccc(CSc2nnc(-c3ccccn3)o2)cc1,inactive
2,CS(=O)(=O)c1ccc(-c2nnc(SCc3ccccc3)o2)cc1,inactive
3,c1ccc(CSc2nnc(-c3cscn3)o2)cc1,inactive
4,FC(F)(F)Oc1ccccc1CSc1nnc(-c2ccccc2)o1,inactive
5,c1ccc(CNCCSc2nnc(-c3ccccc3)o2)cc1,inactive
6,CN(C)CCSc1nnc(-c2ccccc2)o1,inactive
7,c1ccc(CSc2nnc(-c3ccccc3)s2)cc1,inactive
8,COc1ccc(-c2nnc(SCc3ccccc3)o2)cc1,inactive
9,CS(=O)(=O)c1ccc(CSc2nnc(-c3ccccc3)o2)cc1,inactive
10,c1ccc(-c2nnc(SCc3cscn3)o2)cc1,inactive
11,c1ccc(-c2nnc(SCc3ncco3)o2)cc1,inactive
12,FC1(F)CN(CCSc2nnc(-c3ccccc3)o2)C1,inactive
13,FC(F)(F)Oc1ccccc1-c1nnc(SCc2ccccc2)o1,inactive
14,c1ccc(-c2nnc(SCCN3CCOCC3)o2)cc1,inactive
15,O=C(Cc1ccccc1)c1nnc(-c2ccccc2)o1,inactive
16,Clc1ccccc1-c1nnc(SCc2ccccc2)o1,inactive
17,FC(F)(F)Oc1ccc(-c2nnc(SCc3ccccc3)o2)cc1,inactive
18,Fc1ccc(CSc2nnc(-c3ccccc3)o2)cc1,inactive
19,Clc1ccccc1CSc1nnc(-c2ccccc2)o1,inactive
20,FC(F)(F)c1ccccc1-c1nnc(SCc2ccccc2)o1,inactive
21,c1ccc(CSc2nnc(-c3ccco3)o2)cc1,inactive
22,CS(=O)(=O)c1cccc(CSc2nnc(-c3ccccc3)o2)c1,inactive
23,c1ccc(CSc2ncc(-c3ccccc3)o2)cc1,inactive

row,Compound,outcome
1,Cc1nnc(SCc2ccccc2)o1,inactive
2,COc1ccccc1CSc1nnc(-c2ccccc2)o1,inactive
3,N#Cc1ccccc1CSc1nnc(-c2ccccc2)o1,inactive
4,CS(=O)(=O)c1cccc(-c2nnc(SCc3ccccc3)o2)c1,inactive
5,CS(=O)(=O)c1ccccc1CSc1nnc(-c2ccccc2)o1,inactive
6,Cc1ccc(CSc2nnc(-c3ccccc3)o2)cc1,inactive
7,Cc1ccccc1-c1nnc(SCc2ccccc2)o1,inactive
8,c1ccc(CSc2nnc(-c3cnco3)o2)cc1,inactive
9,CC1(O)CN(CCSc2nnc(-c3ccccc3)o2)C1,inactive
10,FC(F)(F)c1cccc(-c2nnc(SCc3ccccc3)o2)c1,inactive
11,FC(F)(F)c1ccc(-c2nnc(SCc3ccccc3)o2)cc1,inactive
12,c1ccc(CSc2nnc(Cc3ccccc3)o2)cc1,inactive
13,c1ccc(-c2nnc(SC(c3ccccc3)c3ccccc3)o2)cc1,inactive
14,COc1ccc(-c2nnc(SCc3ccc(Cl)cc3)o2)cc1,inactive
15,Clc1ccc(CSc2nnc(-c3ccccc3)o2)cc1,inactive
16,Fc1ccccc1-c1nnc(SCc2ccccc2)o1,inactive
17,c1ccc(CNc2nnc(-c3ccccc3)o2)cc1,inactive
18,Clc1ccc(-c2nnc(SCc3ccccc3)o2)cc1,inactive
19,Fc1cccc(-c2nnc(SCc3ccccc3)o2)c1,inactive
20,O=C(Cc1ccccc1)C(C(=O)c1nnc(-c2ccccc2)o1)c1ccccc1 (stereo unspecified),inactive
21,CS(=O)(=O)c1ccccc1-c1nnc(SCc2ccccc2)o1,inactive
22,N#Cc1ccc(-c2nnc(SCc3ccccc3)o2)cc1,inactive
23,Fc1ccc(-c2nnc(SCc3ccccc3)o2)cc1,inactive

row,Compound,outcome
1,Cc1cccc(-c2nnc(SCc3ccccc3)o2)c1,inactive
2,N#Cc1ccc(CSc2nnc(-c3ccccc3)o2)cc1,inactive
3,c1ccc(CCc2nnc(-c3ccccc3)o2)cc1,inactive
4,FC(F)(F)c1ccccc1CSc1nnc(-c2ccccc2)o1,inactive
5,c1ccc(-c2nnc(SCCN3CCCC3)o2)cc1,inactive
6,N#Cc1cccc(CSc2nnc(-c3ccccc3)o2)c1,inactive
7,COc1ccc(CSc2nnc(-c3ccccc3)o2)cc1,inactive
8,FC(F)(F)CNCCSc1nnc(-c2ccccc2)o1,inactive
9,N#Cc1cccc(-c2nnc(SCc3ccccc3)o2)c1,inactive
10,Cc1ccccc1CSc1nnc(-c2ccccc2)o1,inactive
11,Clc1cccc(-c2nnc(SCc3ccccc3)o2)c1,inactive
12,c1ccc(CSc2nnc(-c3ccc(-c4ccccc4)cc3)o2)cc1,inactive
13,FC(F)(F)Oc1cccc(CSc2nnc(-c3ccccc3)o2)c1,inactive
14,c1ccc(CSc2nnc(-c3cc4ccccc4o3)o2)cc1,inactive
15,CN(Cc1ccccc1)c1nnc(-c2ccccc2)o1,inactive
16,Clc1cccc(CSc2nnc(-c3ccccc3)o2)c1,inactive
17,c1ccc(-c2ccc(CSc3nnc(-c4ccccc4)o3)cc2)cc1,inactive
18,c1ccc(CSc2nnc(-c3ccncc3)o2)cc1,inactive
19,FC(F)(F)Oc1ccc(CSc2nnc(-c3ccccc3)o2)cc1,inactive
20,FC(F)(F)c1ccc(CSc2nnc(-c3ccccc3)o2)cc1,inactive
21,Brc1ccc(CSc2nnc(-c3ccccc3)o2)cc1,inactive

# System: M. tuberculosis replicating log phase, growth inhibition
# Assay: as above
# Settings: not given
row,Compound,IC90
1,CC(C)c1nnc(SCc2ccccc2)o1,250 µM
2,Cc1ccc(-c2nnc(SCc3ccccc3)o2)cc1,125 µM
3,COCCOCCSc1nnc(-c2ccccc2)o1,250 µM
4,Fc1cccc(CSc2nnc(-c3ccccc3)o2)c1,250 µM
5,c1ccc(CSc2nnc(-c3cccnc3)o2)cc1,250 µM
6,Cc1cccc(CSc2nnc(-c3ccccc3)o2)c1,250 µM
7,FC(F)(F)Oc1cccc(-c2nnc(SCc3ccccc3)o2)c1,250 µM
8,c1ccc(CSc2nnc(-c3ccccc3)o2)cc1,125 µM
9,c1ccc(CCc2nnc(SCc3ccccc3)o2)cc1,250 µM
10,COc1ccccc1-c1nnc(SCc2ccccc2)o1,250 µM
11,c1ccc(CSc2nnc(C3CCCC3)o2)cc1,250 µM
12,FC(F)(F)c1cccc(CSc2nnc(-c3ccccc3)o2)c1,250 µM
13,c1ccc(-c2nnc(SCCN3CCN(c4ccccc4)CC3)o2)cc1,125 µM
14,c1ccc(CSc2nnc(-c3cccs3)o2)cc1,250 µM
15,Fc1ccccc1CSc1nnc(-c2ccccc2)o1,250 µM
16,c1ccc(CSc2nnc(C3CCCCC3)o2)cc1,250 µM
17,COc1cccc(-c2nnc(SCc3ccccc3)o2)c1,250 µM
18,FC1(F)CCN(CCSc2nnc(-c3ccccc3)o2)CC1,250 µM
19,COc1cccc(CSc2nnc(-c3ccccc3)o2)c1,250 µM

# — PubChem BioAssay AID651618 (Broad Institute, 2012)
